The target of assay [1] is EGFR L858R/T790M/C797S mutant enzyme (Homo sapiens (Human), UniProt P00533, C797S/L858R/T790M). Put plainly: EGFR mutant enzyme inhibition, HTRF system (Cisbio). Format: biochemical. The following applies: ATP 1 mM, 37° C. for 2 hours. As to the method:
In order to evaluate the inhibitory activity of the compound represented by formula 1 according to the present invention against EGFR mutation, the following experiment was performed.
The activity of the compound of the present invention against EGFR mutant enzyme was measured using the HTRF system of Cisbio Co. As an EGFR L858R/T790M/C797S mutant enzyme, a protein provided by SignalChem was purchased and used as an enzyme source.
The composition of the assay buffer used for the activity measurement was as follows: 50 mM Tris-HCl (pH 7.5), 100 mM NaCl, 7.5 mM MgCl2, 3 mM KCl, 0.01% Tween 20, 0.1% BSA, and 1 mM DTT. Herein, an enzyme reaction was performed using a peptide substrate labeled with ATP at the concentration of 1 mM and biotin at the concentration of 0.5 μM. The analysis of the EGFR activity inhibitory effect of the compound was performed according to the following analytical reaction recipe.
Component 1: 4 μl of EGFR mutant enzyme
Component 2: 2 μl of compound solution
Component 3: 4 μl of ATP and biotin-labeled peptide mixture
The enzyme reaction was initiated by mixing the component 1 and the component 2 first and then adding the component 3 thereto. After reacting the mixture at 37° C. for 2 hours, 10 μl of a measurement solution consisting of streptavidin-XL665 and europium-labeled anti-phosphotyrosine antibody provided by Cisbio was added to the enzyme reaction solution, followed by reaction at room temperature for 1 hour. Finally, the ratio of the fluorescence values at 615 nm and 665 nm was calculated using Envision equipment of Perkin-Elmer to quantitatively measure the enzyme activity and confirm the inhibitory ability of the compound. The values measured at 7 concentrations of the compound were analyzed using Prism program (version 5.01, Graphpad Software, Inc.), and the IC50 value, an index of the inhibitory ability of the compound, was calculated.

The next assay relates to Ba/F3 EGFR L858R/T790M. Put plainly: Ba/F3 cell viability, CellTiter-Glo. The conditions noted are these: for cell viability: administered alone, FIGS. 1 to 4; for cell viability compared to EAI045: co-administered with Cetuximab, 30 nM or 100 nM, FIGS. 6 and 7. Format: cell-based. The method, then:
In order to confirm that the compound represented by formula 1 according to the present invention acted as an allosteric inhibitor against EGFR wild-type and mutants, the inhibitory effect on EGFR wild-type and mutants in Ba/F3 cell lines was evaluated. In addition, in order to evaluate the cellular activity when the compound according to the present invention was co-administered with an existing drug, the cellular activity according to the combined administration was evaluated using Cetuximab used alone or in combination with chemotherapy in metastatic colorectal cancer and metastatic squamous head and neck cancer.
Particularly, the activity of the compound of the present invention against the wild-type and mutant Ba/F3 EGFR cell lines was measured as follows using the CellTiter-Glo system of Promega. CellTiter-Glo assay is a method to confirm the cell viability by measuring ATP present in cells in cell culture state. Ba/F3 EGFR wild-type and Ba/F3 EGFR L858R, Ba/F3 EGFR L858R/T790M and Ba/F3 L858R/T790M/C797S mutant cell lines were purchased from Crown Bioscience and used. Ba/F3 EGFR wild-type and Ba/F3 EGFR L858R, Ba/F3 EGFR L858R/T790M and Ba/F3 L858R/T790M/C797S mutant cell lines were cultured in RPMI containing 10% FBS, 1% penicillin-streptomycin and 1 ug/ml of puromycine in a 37° C., 5% CO2 incubator.
Analysis of the cell survival inhibitory effect of the compound according to each EGFR mutant was performed according to the following analytical reaction recipe.
BaF3 cells were aliquoted into 2500 cells/50 ul per well of a 96 well cell culture plate and cultured for 24 hours, to which 50 ul of the compound represented by formula 1 was treated at the concentrations of 0, 0.03, 0.1, 0.3, and 1 μM. The plate treated with the compound was reacted in a 37° C. incubator for 72 hours, and then left at room temperature for 30 minutes according to the CellTiter-Glo assay instruction to maintain the plate temperature at room temperature. Thereafter, 100 μl of CellTiter-Glo reagent was treated to each well of the plate, followed by shaking incubation at room temperature for 10 minutes. Finally, the […] was quantitatively measured using a luminometer, and the ability of the compound to inhibit cell viability was confirmed. The values measured at concentrations of the compound were analyzed using Prism program (version 5.01, Graphpad Software, Inc.), and the IC50 value, an index of the inhibitory ability of the compound, was calculated.
In general terms: Cellular ATP, detected with luciferase, serves as a proxy for viable cell number.

Structures are written as SMILES.

Sequence of EGFR L858R/T790M/C797S mutant enzyme (P00533 25-1210 T790M/C797S/L858R): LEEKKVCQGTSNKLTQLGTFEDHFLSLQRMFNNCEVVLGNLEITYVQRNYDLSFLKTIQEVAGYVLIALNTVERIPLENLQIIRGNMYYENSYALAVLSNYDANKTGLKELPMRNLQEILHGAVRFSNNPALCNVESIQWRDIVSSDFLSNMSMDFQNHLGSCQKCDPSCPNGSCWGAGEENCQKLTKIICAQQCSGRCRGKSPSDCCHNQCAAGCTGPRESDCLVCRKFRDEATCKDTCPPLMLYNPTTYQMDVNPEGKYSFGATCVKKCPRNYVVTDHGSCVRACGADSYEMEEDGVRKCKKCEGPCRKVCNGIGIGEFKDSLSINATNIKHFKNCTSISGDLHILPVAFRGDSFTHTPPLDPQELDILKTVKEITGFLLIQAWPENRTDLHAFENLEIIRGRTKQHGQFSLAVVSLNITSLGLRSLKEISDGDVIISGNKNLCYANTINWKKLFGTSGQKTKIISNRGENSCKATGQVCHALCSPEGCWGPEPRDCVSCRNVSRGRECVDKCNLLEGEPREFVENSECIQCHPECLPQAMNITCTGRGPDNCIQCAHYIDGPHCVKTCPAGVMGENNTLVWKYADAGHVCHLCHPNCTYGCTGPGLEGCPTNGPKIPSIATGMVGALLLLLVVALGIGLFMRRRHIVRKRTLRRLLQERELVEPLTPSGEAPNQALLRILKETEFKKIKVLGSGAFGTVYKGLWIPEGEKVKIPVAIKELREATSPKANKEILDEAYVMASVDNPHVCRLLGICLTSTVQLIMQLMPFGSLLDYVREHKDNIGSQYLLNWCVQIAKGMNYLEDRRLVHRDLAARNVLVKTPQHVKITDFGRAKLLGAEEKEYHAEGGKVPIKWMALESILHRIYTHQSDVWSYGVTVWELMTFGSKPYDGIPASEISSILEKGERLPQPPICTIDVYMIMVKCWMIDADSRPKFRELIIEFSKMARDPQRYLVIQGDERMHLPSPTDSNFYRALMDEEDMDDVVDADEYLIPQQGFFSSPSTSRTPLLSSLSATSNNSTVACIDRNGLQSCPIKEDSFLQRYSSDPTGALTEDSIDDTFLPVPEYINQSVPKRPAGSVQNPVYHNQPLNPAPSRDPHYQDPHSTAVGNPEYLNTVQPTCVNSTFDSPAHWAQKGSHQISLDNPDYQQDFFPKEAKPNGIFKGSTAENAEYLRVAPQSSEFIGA

As to `O=C1c2cc(-c3ccc(N4CCNCC4)cc3)ccc2CN1C(c1nc2ccccc2[nH]1)c1ccccc1O` (stereo not drawn) [Example 9, 2-((1H-benzo[d]imidazole-2-yl)(2-hydroxyphenyl)methyl)-6-(4-(piperazine-1-yl)phenyl)isoindolin-1-one], the IC50 in assay [1] amounted to 91 nM. In addition, in the assay with Ba/F3 EGFR L858R/T790M, the cell viability entry was “increased cell viability” and the “cell viability compared to EAI045” value is on record as “significantly reduced the cell viability”. In the case of `O=C1c2cc(C3=CCNCC3)ccc2CN1[C@@H](c1cc2ccccc2[nH]1)c1cc(Cl)ccc1O` [Example 36, (R)-2-((5-chloro-2-hydroxyphenyl)(1H-indole-2-yl)methyl)-6-(1,2,3,6-tetrahydropyridine-4-yl)isoindolin-1-one], in assay [1], the IC50 turned out to be 2400 nM.

In turn, `Nc1ccc(-c2ccc3c(c2)C(=O)N(C(c2nc4ccccc4[nH]2)c2cc(F)ccc2O)C3)cc1` (stereo not drawn) [Example 13, 2-((1H-benzo[d]imidazole-2-yl)(5-fluoro-2-hydroxyphenyl)methyl)-6-(4-aminophenyl)isoindolin-1-one] showed an IC50 in assay [1] of 98 nM. Besides, the cell viability entry in the assay on Ba/F3 EGFR L858R/T790M was “increased cell viability”. `O=C1c2cc(-c3ccc(N4CCNCC4)cc3)ccc2CN1[C@@H](c1cc2ccccc2[nH]1)c1cc(F)ccc1O` [Example 32, (R)-2-((5-fluoro-2-hydroxyphenyl)(1H-indole-2-yl)methyl)-6-(4-(piperazine-1-yl)phenyl)isoindolin-1-one] came in with an IC50 in assay [1] of 8 nM. In addition, in the assay on Ba/F3 EGFR L858R/T790M, the cell viability entry was “increased cell viability” and the “cell viability compared to EAI045” value is “significantly reduced the cell viability”. As to `O=C1c2ccccc2CN1[C@@H](c1cc2ccccc2[nH]1)c1ccccc1O` [Example 19, (R)-2-((2-hydroxyphenyl)(1H-indole-2-yl)methyl)isoindolin-1-one], the IC50 in assay [1] was more than 10000 nM. In the case of `O=C1c2cc(-c3ccc(N4CCCC4)cc3)ccc2CN1[C@@H](c1cc2ccccc2[nH]1)c1cc(Cl)ccc1O` [Example 68, (R)-2-((5-chloro-2-hydroxyphenyl)(1H-indole-2-yl)methyl)-6-(4-(pyrrolidine-1-yl)phenyl)isoindolin-1-one], inhibition in assay [1] was half-maximal at 250 nM (IC50). Same read-out and setting: then `O=C1c2ccccc2CN1C(c1nc2ccccc2[nH]1)c1ccccc1O` (stereo not drawn) [Example 1, 2-((1H-benzo[d]imidazole-2-yl)(2-hydroxyphenyl)methyl)isoindolin-1-one], with 1000 nM.

For the compound `O=C1c2cc(-c3ccc(N4CCNCC4)cc3)ccc2CN1[C@@H](c1cc2ccccc2[nH]1)c1cc(Cl)ccc1O` [Example 33, (R)-2-((5-chloro-2-hydroxyphenyl)(1H-indole-2-yl)methyl)-6-(4-(piperazine-1-yl)phenyl)isoindolin-1-one], it took 12 nM to reach half-maximal inhibition in assay [1] (IC50). Also, in the assay with Ba/F3 EGFR L858R/T790M, the cell viability entry is given as “increased cell viability” and the “cell viability compared to EAI045” value was “significantly reduced the cell viability”. In assay [1], `O=C1c2cc(-c3ccc(N4CCC(N5CCNCC5)CC4)cc3)ccc2CN1[C@@H](c1cc2ccccc2[nH]1)c1cc(F)ccc1O` [Example 59, (R)-2-((5-fluoro-2-hydroxyphenyl)(1H-indole-2-yl)methyl)-6-(4-(4-(piperazine-1-yl)piperidine-1-yl)phenyl)isoindolin-1-one] registered an IC50 of 32 nM. The compound `O=C1c2cc(-c3ccc(-c4ccncc4)cc3)ccc2CN1C(c1nc2ccccc2[nH]1)c1cc(F)ccc1O` (stereo not drawn) [Example 41, 2-((1H-benzo[d]imidazole-2-yl)(5-fluoro-2-hydroxyphenyl)methyl)-6-(4-(pyridine-4-yl)phenyl)isoindolin-1-one] displayed an IC50 in assay [1] of 220 nM. Still for that read-out and setting: then `O=C1c2cc(-c3ccc(N4CCOCC4)cc3)ccc2CN1C(c1nc2ccccc2[nH]1)c1cc(F)ccc1O` (stereo not drawn) [Example 39, 2-((1H-benzo[d]imidazole-2-yl)(5-fluoro-2-hydroxyphenyl)methyl)-6-(4-morpholinophenyl)isoindolin-1-one], with 960 nM.

Usually IC50 stands for the concentration that inhibits the measured activity by half. Read a high IC50 as lower potency.

For the origin of these results see patent US11976059B2 (KOREA RESEARCH INSTITUTE OF CHEMICAL TECHNOLOGY, priority 2018, dated 2024).
